From ChEMBL document CHEMBL1146680, “A highly toxic morphine-3-glucuronide derivative” (Bioorg Med Chem Lett, 2004)
Active and inactive are the calls of the source. The calls are words filed in the database; no cut-off is given here.

Legend:
Rattus norvegicus [1] = experiment: Opioid antagonist activity (1 mg/kg, peripherally) was determined by measuring the analgesia produced by morphine given 10 mins (after the compound) at a dose of 5 mg/kg; no effect; assay type: functional, organism-based; design: dose 5 mg/kg
Rattus norvegicus [2] = experiment: Opioid antagonist activity (30 mg/kg, peripherally) was determined by measuring the analgesia produced by morphine given 10 mins (after the compound) at a dose of 5 mg/kg; no effect; assay type: functional, organism-based; design: dose 5 mg/kg
Rattus norvegicus [3] = experiment: Opioid antagonist activity (5 mg/kg, peripherally) was determined by measuring the analgesia produced by morphine given 10 mins (after the compound) at a dose of 5 mg/kg; no effect; assay type: functional, organism-based; design: dose 5 mg/kg
Rattus norvegicus [4] = experiment: Analgesic effect on rats after 30 mins of 5 mg/kg administration; value ranges from 60-70%; assay type: functional
Rattus norvegicus [5] = experiment: Inhibition of analgesia by (5 mg/kg) administered 10 min after morphine (5 mg/kg); inhibited; assay type: functional, organism-based
Rattus norvegicus [6] = experiment: Effect after 1 mg/kg i.p. administration was measured by rat tail flick test; no analgesia observed; assay type: functional, organism-based; design: dose 1 mg/kg
Rattus norvegicus [7] = experiment: Effect after 5 mg/kg i.p. administration was measured by rat tail flick test; no analgesia observed; assay type: functional, organism-based; design: dose 5 mg/kg
Rattus norvegicus [8] = experiment: Effect after 10 mg/kg i.p. administration was measured by rat tail flick test; no analgesia observed; assay type: functional, organism-based; design: dose 10 mg/kg
Rattus norvegicus [9] = experiment: Effect after 5 mg/kg i.p. administration was measured by rat paw pressure test; no analgesia observed; assay type: functional, organism-based; design: dose 5 mg/kg
Rattus norvegicus [10] = experiment: Effect after 1 mg/kg i.p. administration was measured by rat paw pressure test; no analgesia observed; assay type: functional, organism-based; design: dose 1 mg/kg
Rattus norvegicus [11] = experiment: Effect after 10 mg/kg i.p. administration was measured by rat paw pressure test; no analgesia observed; assay type: functional, organism-based; design: dose 10 mg/kg
Rattus norvegicus [12] = experiment: Opioid agonist activity by measuring the analgesia produced after 10 mg/kg administration in rats; none; assay type: functional, organism-based; design: dose 10 mg/kg
Rattus norvegicus [13] = experiment: Opioid antagonist activity (1 mg/kg, peripherally) was determined by measuring the analgesia produced by morphine given 20 mins (after the compound) at a dose of 5 mg/kg; no effect; assay type: functional, organism-based; design: dose 5 mg/kg
Rattus norvegicus [14] = experiment: Opioid agonist activity by measuring the analgesia produced after 5 mg/kg administration in rats; none; assay type: functional, organism-based; design: dose 5 mg/kg
Rattus norvegicus [15] = experiment: Opioid agonist activity by measuring the analgesia produced after 1 mg/kg administration in rats; none; assay type: functional, organism-based; design: dose 1 mg/kg
Rattus norvegicus [16] = experiment: Reversion of toxic effect (1 ng/kg) by naloxone given 20 mins (before the compound) at a dose of 10 mg/kg; no improvement in survival observed; assay type: ADME, organism-based; design: dose 10 mg/kg; conditions: in vivo
Rattus norvegicus [17] = experiment: Reversion of toxic effect (1 ng/kg) by naloxone given 10 mins (before the compound) at a dose of 1 mg/kg; no improvement in survival observed; assay type: organism-based; design: dose 1 mg/kg; conditions: in vivo
Rattus norvegicus [18] = experiment: Reversion of toxic effect (1 ng/kg) by naloxone given 20 mins (before the compound) at a dose of 1 mg/kg; no improvement in survival observed; assay type: organism-based; design: dose 1 mg/kg; conditions: in vivo
Rattus norvegicus [19] = experiment: Effect on rats after 30 mins of 1 ng/kg administration; death observed; assay type: ADME, organism-based; conditions: in vivo, 1e-06 mg/kg, 0.5 h
Rattus norvegicus [20] = experiment: Effect on rats after 30 mins of 1 mg/kg administration; death observed; assay type: ADME, organism-based; design: dose 1 mg/kg; conditions: in vivo, 0.5 h
Rattus norvegicus [21] = experiment: Reversion of toxic effect (1 ng/kg) by naloxone given 30 mins (after the compound) at a dose of 1 mg/kg; no improvement in survival observed; assay type: ADME, organism-based; design: dose 1 mg/kg; conditions: in vivo, 0.5 h
Rattus norvegicus [22] = experiment: Reversion of toxic effect (1 ng/kg) by naloxone given 20 mins (after the compound) at a dose of 10 mg/kg; no improvement in survival observed; assay type: ADME, organism-based; design: dose 10 mg/kg; conditions: in vivo
Rattus norvegicus [23] = experiment: Reversion of toxic effect (1 ng/kg) by naloxone given 15 mins (before the compound) at a dose of 5 mg/kg; no improvement in survival observed; assay type: ADME, organism-based; design: dose 5 mg/kg; conditions: in vivo, 0.25 h
Rattus norvegicus [24] = experiment: Reversion of toxic effect (1 ng/kg) by naloxone given 15 mins (after the compound) at a dose of 5 mg/kg; no improvement in survival observed; assay type: ADME, organism-based; design: dose 5 mg/kg; conditions: in vivo, 0.25 h
Rattus norvegicus [25] = experiment: Reversion of toxic effect (1 ng/kg) by naloxone given 20 mins (before the compound) at a dose of 5 mg/kg; no improvement in survival observed; assay type: ADME, organism-based; design: dose 5 mg/kg; conditions: in vivo
Rattus norvegicus [26] = experiment: Reversion of toxic effect (1 ng/kg) by naloxone given 20 mins (after the compound) at a dose of 5 mg/kg; no improvement in survival observed; assay type: organism-based; design: dose 5 mg/kg; conditions: in vivo
Mus musculus [27] = experiment: Effect after 1 ng/kg i.p. administration was measured by mice paw pressure test; no analgesia observed; assay type: functional, organism-based
Rattus norvegicus [28] = experiment: Effect on rats after 30 mins of 2.5 mg/kg administration; death observed; assay type: ADME, organism-based; design: dose 2.5 mg/kg; conditions: in vivo, 0.5 h
Rattus norvegicus [29] = experiment: Reversion of toxic effect (1 ng/kg) by naloxone given 20 mins (after the compound) at a dose of 1 mg/kg; no improvement in survival observed; assay type: ADME, organism-based; design: dose 1 mg/kg; conditions: in vivo
Rattus norvegicus [30] = experiment: Reversion of toxic effect (1 ng/kg) by naloxone given 30 mins (after the compound) at a dose of 10 mg/kg; no improvement in survival observed; assay type: organism-based; design: dose 10 mg/kg; conditions: in vivo, 0.5 h
Rattus norvegicus [31] = experiment: Reversion of toxic effect (1 ng/kg) by naloxone given 10 mins (before the compound) at a dose of 10 mg/kg; no improvement in survival observed; assay type: ADME, organism-based; design: dose 10 mg/kg; conditions: in vivo
Rattus norvegicus [32] = experiment: Reversion of toxic effect (1 ng/kg) by naloxone given 15 mins (before the compound) at a dose of 1 mg/kg; no improvement in survival observed; assay type: organism-based; design: dose 1 mg/kg; conditions: in vivo, 0.25 h
Rattus norvegicus [33] = experiment: Effect on rats after 30 mins of 0.05 mg/kg administration; death observed; assay type: ADME, organism-based; design: dose 0.05 mg/kg; conditions: in vivo, 0.5 h
Rattus norvegicus [34] = experiment: Reversion of toxic effect (1 ng/kg) by naloxone given 10 mins (after the compound) at a dose of 5 mg/kg; no improvement in survival observed; assay type: ADME, organism-based; design: dose 5 mg/kg; conditions: in vivo
Rattus norvegicus [35] = experiment: Effect on rats after 30 mins of 0.005 mg/kg administration; death observed; assay type: ADME, organism-based; design: dose 0.005 mg/kg; conditions: in vivo, 0.5 h
Rattus norvegicus [36] = experiment: Reversion of toxic effect (1 ng/kg) by naloxone given 10 mins (before the compound) at a dose of 5 mg/kg; no improvement in survival observed; assay type: ADME, organism-based; design: dose 5 mg/kg; conditions: in vivo
Rattus norvegicus [37] = experiment: Reversion of toxic effect (1 ng/kg) by naloxone given 10 mins (after the compound) at a dose of 1 mg/kg; no improvement in survival observed; assay type: organism-based; design: dose 1 mg/kg; conditions: in vivo
Rattus norvegicus [38] = experiment: Effect on rats after 30 mins of 0.5 mg/kg administration; death observed; assay type: ADME, organism-based; design: dose 0.5 mg/kg; conditions: in vivo, 0.5 h
Rattus norvegicus [39] = experiment: Reversion of toxic effect (1 ng/kg) by naloxone given 15 mins (after the compound) at a dose of 10 mg/kg; no improvement in survival observed; assay type: ADME, organism-based; design: dose 10 mg/kg; conditions: in vivo, 0.25 h
Rattus norvegicus [40] = experiment: Reversion of toxic effect (1 ng/kg) by naloxone given 15 mins (before the compound) at a dose of 10 mg/kg; no improvement in survival observed; assay type: organism-based; design: dose 10 mg/kg; conditions: in vivo, 0.25 h
Mus musculus [41] = experiment: Effect after 1 ng/kg i.p. administration was measured by mice tail flick test; no analgesia observed; assay type: functional, organism-based
Rattus norvegicus [42] = experiment: Effect on rats after 30 mins of 5 mg/kg administration; death observed; assay type: ADME, organism-based; design: dose 5 mg/kg; conditions: in vivo, 0.5 h
Rattus norvegicus [43] = experiment: Reversion of toxic effect (1 ng/kg) by naloxone given 15 mins (after the compound) at a dose of 1 mg/kg; no improvement in survival observed; assay type: organism-based; design: dose 1 mg/kg; conditions: in vivo, 0.25 h
Rattus norvegicus [44] = experiment: Reversion of toxic effect (1 ng/kg) by naloxone given 30 mins (after the compound) at a dose of 5 mg/kg; no improvement in survival observed; assay type: ADME, organism-based; design: dose 5 mg/kg; conditions: in vivo, 0.5 h
Rattus norvegicus [45] = experiment: Reversion of toxic effect (1 ng/kg) by naloxone given 10 mins (after the compound) at a dose of 10 mg/kg; no improvement in survival observed; assay type: ADME, organism-based; design: dose 10 mg/kg; conditions: in vivo

In the case of `C=CCN1CC[C@]23c4c5ccc(O)c4O[C@H]2C(=O)CC[C@@]3(O)[C@H]1C5`, the Activity (Rattus norvegicus [1]) is reported as “inactive”, the Activity (Rattus norvegicus [2]) is reported as “inactive” and the Activity (Rattus norvegicus [3]) is reported as “inactive”.

`CN1CC[C@]23c4c5ccc(O)c4O[C@H]2[C@@H](O)C=C[C@H]3[C@H]1C5` [MORPHINE] showed an Effect (Rattus norvegicus [4]) of 70%.

With `CN1CC[C@]23c4c5ccc(OC6OC(C(N)=O)C(O)C(O)C6O)c4O[C@H]2[C@@H](O)C=C[C@H]3[C@H]1C5` (stereo not given in full) the Activity (Rattus norvegicus [5]) was “inhibited”, the Effect (Rattus norvegicus [6]) was “no analgesia observed” and the Effect (Rattus norvegicus [7]) was “no analgesia observed”. For the same molecule, the Effect (Rattus norvegicus [8]) was “no analgesia observed”, the Effect (Rattus norvegicus [9]) was “no analgesia observed” and the Effect (Rattus norvegicus [10]) was “no analgesia observed”. For the same molecule, the Effect (Rattus norvegicus [11]) was “no analgesia observed”.

For `CN1CC[C@]23c4c5ccc(O[C@@H]6O[C@H](C(=O)O)[C@@H](O)[C@H](O)[C@H]6O)c4O[C@H]2[C@@H](O)C=C[C@H]3[C@H]1C5` (stereo in doubt; form 1), the Activity (Rattus norvegicus [12]) was “inactive”, the Activity (Rattus norvegicus [13]) was “inactive” and the Activity (Rattus norvegicus [2]) was “inactive”. For the same molecule, the Activity (Rattus norvegicus [14]) was “inactive”, the Activity (Rattus norvegicus [15]) was “inactive” and the Activity (Rattus norvegicus [3]) was “inactive”.

With `CN1CC[C@]23c4c5ccc(O[C@@H]6O[C@H](C(=O)O)[C@@H](O)[C@H](O)[C@H]6O)c4O[C@H]2[C@@H](O)C=C[C@H]3[C@H]1C5` (stereo in doubt; form 2) the Activity (Rattus norvegicus [12]) was “inactive”, the Activity (Rattus norvegicus [14]) was “inactive” and the Activity (Rattus norvegicus [15]) was “inactive”.

`CCCCCCCCNC(=O)C1OC(Oc2ccc3c4c2O[C@H]2[C@@H](O)C=C[C@H]5[C@@H](C3)N(C)CC[C@@]452)C(O)C(O)C1O` (stereo not given in full) was tested, and the Activity (Rattus norvegicus [16]) was “no improvement in survival”, the Activity (Rattus norvegicus [17]) was “no improvement in survival” and the Activity (Rattus norvegicus [18]) was “no improvement in survival”. For the same molecule, the Effect (Rattus norvegicus [19]) was “Death”, the Effect (Rattus norvegicus [20]) was “Death” and the Activity (Rattus norvegicus [21]) was “no improvement in survival”. The Activity (Rattus norvegicus [22]) was “no improvement in survival”, the Activity (Rattus norvegicus [23]) was “no improvement in survival” and the Activity (Rattus norvegicus [24]) was “no improvement in survival”. The Activity (Rattus norvegicus [25]) was “no improvement in survival”, the Activity (Rattus norvegicus [26]) was “no improvement in survival” and the Effect (Mus musculus [27]) was “Death”. For the same molecule, the Effect (Rattus norvegicus [28]) was “Death”, the Activity (Rattus norvegicus [29]) was “no improvement in survival” and the Activity (Rattus norvegicus [30]) was “no improvement in survival”. For the same molecule, the Activity (Rattus norvegicus [31]) was “no improvement in survival”, the Activity (Rattus norvegicus [32]) was “no improvement in survival” and the Effect (Rattus norvegicus [33]) was “Death”. The Activity (Rattus norvegicus [34]) was “no improvement in survival”, the Effect (Rattus norvegicus [35]) was “Death” and the Activity (Rattus norvegicus [36]) was “no improvement in survival”. The Activity (Rattus norvegicus [37]) was “no improvement in survival”, the Effect (Rattus norvegicus [38]) was “Death” and the Activity (Rattus norvegicus [39]) was “no improvement in survival”. The Activity (Rattus norvegicus [40]) was “no improvement in survival”, the Effect (Mus musculus [41]) was “Death” and the Effect (Rattus norvegicus [42]) was “Death”. The Activity (Rattus norvegicus [43]) was “no improvement in survival”, the Activity (Rattus norvegicus [44]) was “no improvement in survival” and the Activity (Rattus norvegicus [45]) was “no improvement in survival”.
